Entries after “also recorded” stand apart in the source; their conditions may differ.
Experiments:
chicken DRG neuronal = experiment: Chicken DRG neuronal survival assay; type: cell-based; settings: preliminary screening
[1] = system: E16-17 mouse hippocampal neurons; experiment: Hippocampal neuron survival (morphology plus MTT conversion); type: cell-based; settings: for neurotrophic activity (neuron survival response): 48 h, counts normalized to 25 ng/ml BDNF or baseline, up to 5 nM
Protocol: (§1) Hippocampal neurons were prepared from E16-17 mouse embryos as previously described (Yang. T. et al. (2003) J Neurosci 23, 3353-3363). […] For studies employing p75^NTR+/+ and p75^NTR−/− neurons, mice carrying a mutation in exon 3 of the p75^NTR gene (Lee, K. F. et al. (1992) Cell 69, 737-749) were bred onto a B6 congenic background (>10 B6 backcrosses).
(§2) After 48 hours in culture, cell survival was assessed as previously described (Longo, F. M., Manthorpe. M., Xie. Y. M., Varon, S. (1997) J Neurosci Res 48, 1-17) using a combination of standard morphological criteria along with visual determination of whether a given cell converted MTT to its blue formazan product. The number of surviving neurons was determined by counting the total number of cells in each well that were both morphologically intact and filed with blue product (Longo F. M., Manthorpe. M., Xie, Y. M., Varon, S. (1997) J Neurosci Res 48, 1-17). For each neurotrophin or compound concentration, duplicate wells were counted and the resulting values averaged. Activity of each compound was confirmed by blinded counts. Counts were normalized to survival achieved with 25 ng/ml BDNF or to baseline survival. Fitting of dose-responsive curves was performed with Sigmaplot obtained from SYSTAT Software Inc. (Richmond, Calif., United States of America).

E17 hippocampal neurons = experiment: Aβ-induced death of hippocampal neurons; type: cell-based; settings: for protection against Aβ1-42-induced death: NGF at 100 pg/ml
Protocol: Using previously well established protocols, Aβ was preincubated for 3 days in water to allow formation of oligomers. E17 hippocampal neurons were incubated for 5 days to allow for maturation prior to addition of Aβ with test compounds.

hippocampal neurons [2] = experiment: Hippocampal neuron survival with signaling pathway inhibitors; type: cell-based, mouse; settings: BDNF/NGF 25 ng/ml, compounds 5 nM, 48 h; for effect of PD98059 (ERK inhibitor) on survival promoted by the substance: PD98059 50 μM
Protocol: as §1, §2
(§3) For all studies applying signaling inhibitors, p75^NTR antibodies or p75^NTR−/− neurons, survival was assessed at 48 hours.

NFκB-p65 = NFκB-p65 phosphorylation western blot in hippocampal cultures; type: cell-based, mouse; settings: 20 nM
Protocol: (§4) For assays of Trk, AKT, NFκB, and ERK activation, hippocampal neurons derived from E16-17 mice were cultured in poly-L-lysine coated six-well plates (Corning, Inc., Corning, N.Y., United States of America) in DMEM containing 10% FBS, followed by incubation in serum-free DMEM for 2 hours before addition of neurotrophins or compounds. At the indicated time points, neurons were harvested in lysis buffer consisting of: 20 mM Tris, pH 8.0, 137 mM NaCl, 1% Igepal CA-630, 10% glycerol, 1 mM PMSF, 10 μg/ml aprotinin, 1 μg/ml leupeptin, 500 μM orthovanadate (Zhou, J., Valletta, J. S., Grimes, M. L., Mobley, W. C. (1995) J Neurochem 65, 1146-1156).
(§5) Lysates were centrifuged, the supernatant collected, and protein concentrations determined using the BCA Protein Assay Reagent obtained from Pierce (Rockford, Ill., United States of America). Western blots were performed as described previously (Yang, T. et al. (2003) J Neurosci 23, 3353-3363). Western blot signals were detected using the ECL Chemiluminescence System obtained by Amersham (Piscataway, N.J., United States of America) (Yang, T. et al. (2003) J Neurosci 23, 3353-3363).

p75^NTR-Fc = target: T1, p75^NTR-Fc (Homo sapiens, UniProt P08138); experiment: NGF/p75NTR-Fc binding by NGF ELISA, Gaddum/Schild fit
T1 construct: purchased R&D Systems
T1 sequence (P08138 with tags, fused parts or gaps limits assumed): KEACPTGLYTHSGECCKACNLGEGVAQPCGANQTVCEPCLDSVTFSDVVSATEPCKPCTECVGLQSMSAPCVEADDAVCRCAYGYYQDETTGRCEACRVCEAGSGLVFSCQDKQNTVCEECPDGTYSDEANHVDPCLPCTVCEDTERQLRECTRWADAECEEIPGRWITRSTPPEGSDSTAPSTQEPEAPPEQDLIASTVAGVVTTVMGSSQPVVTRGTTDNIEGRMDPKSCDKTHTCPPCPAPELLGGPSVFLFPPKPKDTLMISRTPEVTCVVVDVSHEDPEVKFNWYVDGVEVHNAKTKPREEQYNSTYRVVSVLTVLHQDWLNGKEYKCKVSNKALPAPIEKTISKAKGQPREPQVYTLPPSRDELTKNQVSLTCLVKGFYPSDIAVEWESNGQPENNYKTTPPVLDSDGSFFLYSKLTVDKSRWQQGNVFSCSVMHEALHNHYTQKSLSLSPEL
Protocol: (§6) Briefly, 96-well plates were incubated with 0.1 pmol (at 1 nM) of p75/Fc or TrkA/Fc recombinant protein obtained from R&D System (Minneapolis, Minn., United States of America) overnight at 4° C. followed by incubation with blocking buffer for 1 hour at room temperature. […] Plates were then washed five times with Tris-buffered saline (TBS) containing 0.05% Tween-20 and incubated with anti-NGF rabbit polyclonal antibody overnight at 4° C. Following five washes with TBS, wells were incubated for 2.5 hours at room temperature with anti-rabbit IgG HRP conjugate and washed five times. 3,3′,5,5′-tetramethyl-benzidine substrate was added and the optical density measured at 450 nm.
A regression analysis of NGF-p75^NTR binding in the presence of the p75-binding compounds was performed. The data was fit using the Nonlinear Regression module of Sigmaplot, to a modification of the Gaddum/Schild equation (adapted from Motulsky, H. J., and Christopoulos. A. (2003) A Practical Guide to Curve Fitting, 2nd edn. (San Diego, Calif., GraphPad Software, Inc.): […]

AKT = AKT activation western blot in hippocampal cultures; type: cell-based, mouse
Protocol: as §4, §5

p75^NTR−/− cells = experiment: Survival of p75NTR+/+ versus p75NTR-/- hippocampal neurons; type: cell-based, mouse; settings: neurotrophins 1.8 nM, compounds 5 nM
Protocol: as §1, §2, §3

hippocampal neurons [3] = experiment: Hippocampal neuron survival with p75NTR antisera (antibody inhibition); type: cell-based, mouse; settings: antiserum 1:100, 48 h
Protocol: as §1, §2, §3

p75^NTR = target: T2, p75^NTR (Homo sapiens, UniProt P08138); experiment: proNGF binding to p75NTR by ELISA; settings: 100 ng/ml proNGF
T2 construct: purchased R&D Systems
T2 sequence (P08138 with tags, fused parts or gaps limits assumed): as above
Protocol: as §6

TrkA-Fc = experiment: NGF/TrkA-Fc binding by NGF ELISA; settings: up to 10,000 nM compound
Protocol: as §6

mature oligodendrocytes = experiment: Oligodendrocyte cell death assay (MBP/TUNEL) with or without proNGF; type: cell-based, rat; settings: 24 h
Protocol: Cortical oligondendrocytes from rat pups were prepared as previously described (Yoon et al. (1998) J Neurosci 18, 3273-3281, Harrington, A. W., Kim, J. Y., Yoon, S. O. (2002) J Neurosci 22, 156-166). Cells were treated with recombinant, cleavage-resistant proNGF at 0.05 nM (2.8 ng/ml). Controls were treated with equivalent volumes of proNGF purification buffer containing 350 mM imidazole. 24 hours after treatment, the cells were fixed and processed for MBP and TUNEL staining as previously described (Beattie, M. S. et al. (2002) Neuron 36, 375-386). 200-250 cells were counted per well, for a minimum of 600 cells per experimental condition.

ERK42 = ERK42 activation western blot in hippocampal cultures; type: cell-based, mouse; settings: compounds 20 nM, BDNF/NGF 50 ng/ml; 10 and 30 min
Protocol: as §4, §5

TrkB = target: T3, TrkB (Mus musculus, UniProt P15209); experiment: Trk Y490 phosphorylation western blot in hippocampal neuron cultures; type: cell-based; settings: 10 or 30 minutes
T3 construct: endogenous in cells; host or cells: primary hippocampal neurons from E16-17 mouse embryos
T3 sequence (P15209 32-821): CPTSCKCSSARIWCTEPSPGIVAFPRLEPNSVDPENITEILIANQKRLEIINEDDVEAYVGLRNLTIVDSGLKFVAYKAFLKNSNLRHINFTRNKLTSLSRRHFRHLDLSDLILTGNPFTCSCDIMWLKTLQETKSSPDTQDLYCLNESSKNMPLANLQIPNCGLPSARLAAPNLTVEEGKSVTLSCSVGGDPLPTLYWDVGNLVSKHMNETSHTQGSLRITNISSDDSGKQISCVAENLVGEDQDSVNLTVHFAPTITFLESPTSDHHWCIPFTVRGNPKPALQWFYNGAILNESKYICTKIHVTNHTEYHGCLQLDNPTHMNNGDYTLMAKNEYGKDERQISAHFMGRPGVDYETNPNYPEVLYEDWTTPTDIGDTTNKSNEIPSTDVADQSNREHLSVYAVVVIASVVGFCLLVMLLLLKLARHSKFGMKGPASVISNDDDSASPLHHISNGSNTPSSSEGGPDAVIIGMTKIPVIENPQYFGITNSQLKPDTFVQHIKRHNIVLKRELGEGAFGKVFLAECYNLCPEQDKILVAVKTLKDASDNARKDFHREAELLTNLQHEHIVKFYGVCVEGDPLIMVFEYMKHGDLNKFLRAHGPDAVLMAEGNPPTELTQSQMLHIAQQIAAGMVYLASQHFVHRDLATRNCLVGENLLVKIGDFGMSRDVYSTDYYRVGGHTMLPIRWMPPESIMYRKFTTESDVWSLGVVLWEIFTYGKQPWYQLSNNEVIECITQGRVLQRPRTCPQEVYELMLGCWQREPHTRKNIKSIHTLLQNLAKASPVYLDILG
Protocol: as §4, §5

## NCCNc1ccc([N+](=O)O)c(N2CCCCC2)c1 [Compound 1]
Chicken DRG neuronal
  activity in DRG neuronal survival: active
[1]
  neurotrophic activity (neuron survival response): active

## CN(C)CCCNC(=O)Cn1cnc2c1c(=O)n(C)c(=O)n2C [Compound 3]
E17 hippocampal neurons; Aβ1-42 10 μM
  protection against Aβ1-42-induced death: blocks Aβ-induced death with a dose-response effect
E17 hippocampal neurons; Hippocampal neuron, Aβ1-42 10 μM, read-out: EC50 for blocking Aβ-induced death
  EC50: ~10 nM
Hippocampal neurons [2]
  effect of PD98059 (ERK inhibitor) on survival promoted by the substance: no significant decrease
Hippocampal neurons [2]; SN50 2.5 μg/ml
  effect of SN50 (NFκB translocation inhibitor) on survival promoted by the substance: significantly reduced
NFκB-p65
  increase in NFκB-p65 phosphorylation: approximately 1.5 fold
p75^NTR-Fc; ANOVA with post-hoc Bonferroni/Dunn
  compound concentration at which binding curve differs from 0 nM curve (P<0.0001): ≥ 125 nM
p75^NTR-Fc; Gaddum-Schild fit
  Schild coefficient: 0.26 +/−0.01
p75^NTR-Fc; increasing compound concentrations
  shift of the NGF/p75NTR-Fc binding curve: significantly to the right
AKT; 20 nM, relative to NGF
  onset of AKT activation: slower than that of NGF
p75^NTR−/− cells
  effect of p75NTR-deficiency on promotion of neuron survival by the substance: completely inhibits
Hippocampal neurons [3]
  effect of Ab 9651 on promotion of neuron survival by the substance: completely blocked; also recorded: completely inhibits
  survival versus CM in the presence of Ab 9651: not significant
[1]; 5 nM compound along with 50 ng/ml NGF
  additive effect on survival with NGF: no additive effect on survival
p75^NTR; P<0.01
  proNGF ELISA signal versus proNGF alone: significantly less than proNGF alone
p75^NTR; at the highest concentration (range 1500 nM to 10,000 nM)
  decrement of proNGF binding to p75NTR: approximately 30%
TrkA-Fc
  effect on NGF binding to TrkA-Fc: did not affect; also recorded: no compound effects up to 10,000 nM
Mature oligodendrocytes; 2.8 ng/ml (0.05 nM) proNGF
  inhibition of proNGF-induced oligodendrocyte death: significantly inhibited; also recorded: blocked cell death
Mature oligodendrocytes; absence of proNGF
  promotion of oligodendrocyte cell death by compound alone: did not promote cell death

## Cn1c(=O)c2c(ncn2CC(=O)NCc2ccco2)n(C)c1=O [Compound 6]
E17 hippocampal neurons; Aβ1-42 10 μM
  protection against Aβ1-42-induced death: failed to block

## N=C(N)NC(=N)NCCNC(=N)NC(=N)N [Compound 7]
Chicken DRG neuronal
  activity in DRG neuronal survival: active
[1]
  neurotrophic activity (neuron survival response): active

## Aβ1-42: amyloid-β, preincubated for 3 days in water to allow formation of oligomers [reference compound]
E17 hippocampal neurons; Aβ1-42 10 μM or 30 μM, 3 day exposure, no compound
  loss of neurons: ~40%

B1: BDNF: brain-derived neurotrophic factor from Sigma-Aldrich (protein, UniProt P23560 19-247, looked up)
Neurotrophic factor BDNF …: APMKEANIRGQGGLAYPGVRTHGTLESVNGPKAGSRGLTSLADTFEHVIEELLDEDQKVRPNEENNKDADLYTSRVMLSSQVPLEPPLLFLLEEYKNYLDAANMSMRVRRHSDPARRGELSVCDSISEWVTAADKKTAVDMSGGTVTVLEKVPVSKGQLKQYFYETKCNPMGYTKEGCRGIDKRHWNSQCRTTQSYVRALTMDSKKRIGWRFIRIDTSCVCTLTIKRGR
Hippocampal neurons [2]
  effect of PD98059 (ERK inhibitor) on survival promoted by the substance: significantly decreased; also recorded: small effects
ERK42
  ERK42 activation: greater with BDNF and NGF treatment than with the p75-binding compounds; also recorded: prolonged activation
AKT; compounds 20 nM, BDNF/NGF 50 ng/ml, 10 and 30 min
  AKT activation: substantially greater response
p75^NTR−/− cells
  effect of p75NTR-deficiency on promotion of neuron survival by the substance: partial responsiveness; also recorded: partially inhibits
  survival in p75NTR−/− cultures, comparison of treatments: greater survival than NGF
Hippocampal neurons [3]
  effect of Ab 9651 on promotion of neuron survival by the substance: partially blocked; also recorded: partially inhibits
  survival versus CM in the presence of Ab 9651: significantly greater than CM+Ab 9651
TrkB
  TrkB activation (Trk Y490 phosphorylation): robust Trk activation; also recorded: activated TrkB

Reference: patent publication US7723328B2, “Methods of facilitating cell survival using neurotrophin mimetics” (The University of North Carolina at Chapel Hill, priority 2005, dated 2010)
